In PubChem BioAssay (NCI):
Several values for one entry are separate records, joined by “and”; a condition that tells them apart may be missing. Equal entries are not always repeated.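 Grown in 96-well plates, cells were treated for 48 hours with each compound at five concentrations. Insufficient inhibition: endpoint recorded as highest concentration tested. GI50 = concentration required for 50% inhibition of growth. At the TGI there is no net growth.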

Assays:
Assay in all cases: NCI-60 cell line screen, 48 h
NCI/ADR-RES ovarian = test system: NCI/ADR-RES ovarian
RXF 393 renal = test system: RXF 393 renal
IGROV1 ovarian = test system: IGROV1 ovarian
PC-3 prostate = test system: PC-3 prostate
COLO 205 colon = test system: COLO 205 colon
OVCAR-4 ovarian = test system: OVCAR-4 ovarian
OVCAR-5 ovarian = test system: OVCAR-5 ovarian
HS 578T breast = test system: HS 578T breast
CAKI-1 renal = test system: CAKI-1 renal
SF-295 CNS = test system: SF-295 CNS
UACC-62 melanoma = test system: UACC-62 melanoma
SF-539 CNS = test system: SF-539 CNS
NCI-H460 lung = test system: NCI-H460 lung
EKVX NSCLC = test system: EKVX NSCLC
UO-31 renal = test system: UO-31 renal
MALME-3M melanoma = test system: MALME-3M melanoma
U251 CNS = test system: U251 CNS
SF-268 CNS = test system: SF-268 CNS
NCI-H522 lung = test system: NCI-H522 lung
HCC-2998 colon = test system: HCC-2998 colon
HOP-92 NSCLC = test system: HOP-92 NSCLC
OVCAR-3 ovarian = test system: OVCAR-3 ovarian
SR leukemia = test system: SR leukemia
SNB-75 CNS = test system: SNB-75 CNS
MOLT-4 leukemia = test system: MOLT-4 leukemia
NCI-H226 lung = test system: NCI-H226 lung
DU-145 prostate = test system: DU-145 prostate
T-47D breast = test system: T-47D breast
SK-MEL-5 melanoma = test system: SK-MEL-5 melanoma
OVCAR-8 ovarian = test system: OVCAR-8 ovarian
CCRF-CEM leukemia = test system: CCRF-CEM leukemia
SNB-19 CNS = test system: SNB-19 CNS
HOP-62 NSCLC = test system: HOP-62 NSCLC
A498 renal = test system: A498 renal
HL-60(TB) leukemia = test system: HL-60(TB) leukemia
RPMI-8226 leukemia = test system: RPMI-8226 leukemia
SK-MEL-2 melanoma = test system: SK-MEL-2 melanoma
SK-MEL-28 melanoma = test system: SK-MEL-28 melanoma
HCT-15 colon = test system: HCT-15 colon
BT-549 breast = test system: BT-549 breast
SW-620 colon = test system: SW-620 colon
UACC-257 melanoma = test system: UACC-257 melanoma
KM12 colon = test system: KM12 colon
TK-10 renal = test system: TK-10 renal
MDA-MB-435 = test system: MDA-MB-435
LOX IMVI melanoma = test system: LOX IMVI melanoma
HCT-116 colon = test system: HCT-116 colon
MDA-MB-231 breast = test system: MDA-MB-231 breast
MCF7 breast = test system: MCF7 breast
SN12C renal = test system: SN12C renal
786-0 renal = test system: 786-0 renal
K-562 leukemia = test system: K-562 leukemia
A549 NSCLC = test system: A549 NSCLC
SK-OV-3 ovarian = test system: SK-OV-3 ovarian
ACHN renal = test system: ACHN renal
HT29 colon = test system: HT29 colon
NCI-H23 lung = test system: NCI-H23 lung

With COc1cc(OC)cc(N2CCN(C(=O)Nc3nc4cc(F)ccc4nc3OC)CC2)c1 the GI50 (NCI/ADR-RES ovarian) was < 14.8 nM and 27.4 nM and 12 nM, the TGI (NCI/ADR-RES ovarian) was 45000 nM and 28800 nM and the GI50 (RXF 393 renal) was < 10 nM and 16 nM. For the same compound, the TGI (RXF 393 renal) was 40700 nM and 66100 nM, the GI50 (IGROV1 ovarian) was 44.1 nM and 98.8 nM and 62 nM and the TGI (IGROV1 ovarian) was 32300 nM and 39500 nM. The GI50 (PC-3 prostate) was 116 nM and 31.2 nM and 33 nM, the TGI (PC-3 prostate) was 40700 nM and 22900 nM and the GI50 (COLO 205 colon) was 26.7 nM and 32.1 nM and 26.6 nM. The TGI (COLO 205 colon) was 83.1 nM and 123 nM and 77.1 nM, the TGI (OVCAR-4 ovarian) was 84800 nM and > 100000 nM and the GI50 (OVCAR-5 ovarian) was 55.7 nM and 158 nM and 52.8 nM. For the same compound, the TGI (OVCAR-5 ovarian) was > 100000 nM, the GI50 (HS 578T breast) was < 10 nM and 27 nM and 38.8 nM and the TGI (HS 578T breast) was 33200 nM and > 100000 nM. For the same compound, the GI50 (CAKI-1 renal) was 40.1 nM and 34 nM, the TGI (CAKI-1 renal) was > 100000 nM and the GI50 (SF-295 CNS) was < 18.4 nM and 25.5 nM. The TGI (SF-295 CNS) was 20600 nM, the GI50 (UACC-62 melanoma) was < 10 nM and 14.2 nM and the TGI (UACC-62 melanoma) was 27200 nM and 21900 nM. The GI50 (SF-539 CNS) was 19.5 nM and 22.8 nM and 13.6 nM, the GI50 (NCI-H460 lung) was 32.3 nM and 35.8 nM and 33.9 nM and the TGI (NCI-H460 lung) was 25300 nM and 14900 nM. For the same compound, the GI50 (EKVX NSCLC) was 54.3 nM and 345 nM and 63.6 nM, the TGI (EKVX NSCLC) was > 87100 nM and 66600 nM and the GI50 (UO-31 renal) was 68.1 nM and 69.2 nM and 33.6 nM. The TGI (UO-31 renal) was 38900 nM and 43300 nM, the GI50 (MALME-3M melanoma) was 5450 nM and 12500 nM and the TGI (MALME-3M melanoma) was 46800 nM and 44800 nM. The GI50 (U251 CNS) was 35.6 nM and 44.8 nM and 42.8 nM, the TGI (U251 CNS) was 27300 nM and 20200 nM and the GI50 (SF-268 CNS) was 91.2 nM and 94 nM and 66.1 nM. For the same compound, the TGI (SF-268 CNS) was 75700 nM and 34100 nM, the GI50 (NCI-H522 lung) was 12 nM and 22.5 nM and the TGI (NCI-H522 lung) was 534 nM and 581 nM and 146 nM. For the same compound, the GI50 (HCC-2998 colon) was 44.5 nM and 37.7 nM and 38.1 nM, the TGI (HCC-2998 colon) was 31400 nM and 27100 nM and the GI50 (HOP-92 NSCLC) was < 10 nM and 6.2 nM. The TGI (HOP-92 NSCLC) was 19300 nM and 3830 nM and 6770 nM, the GI50 (OVCAR-3 ovarian) was 23.2 nM and 25.2 nM and 21.9 nM and the GI50 (SR leukemia) was < 18 nM and 41.5 nM and 26.8 nM. The TGI (SR leukemia) was 20200 nM and 24800 nM, the GI50 (SNB-75 CNS) was 19.7 nM and 24.3 nM and the TGI (SNB-75 CNS) was 56400 nM and 57200 nM. The GI50 (MOLT-4 leukemia) was 49 nM and 45.7 nM and 44 nM, the TGI (MOLT-4 leukemia) was 31100 nM and 30700 nM and the GI50 (NCI-H226 lung) was 197 nM and 51.5 nM and 136 nM. For the same compound, the GI50 (DU-145 prostate) was 43.8 nM and 42.9 nM and 40.3 nM, the TGI (DU-145 prostate) was > 100000 nM and 34900 nM and the GI50 (T-47D breast) was 832 nM. The TGI (T-47D breast) was 43800 nM, the GI50 (SK-MEL-5 melanoma) was < 23 nM and 29.7 nM and 23 nM and the TGI (SK-MEL-5 melanoma) was 294 nM and 399 nM and 160 nM. The GI50 (OVCAR-8 ovarian) was 43.7 nM and 49.9 nM and 56 nM, the TGI (OVCAR-8 ovarian) was > 100000 nM and the GI50 (CCRF-CEM leukemia) was 89.9 nM and 33.8 nM and 34.5 nM. The TGI (CCRF-CEM leukemia) was > 100000 nM, the GI50 (SNB-19 CNS) was 41.8 nM and 45 nM and 43.1 nM and the TGI (SNB-19 CNS) was > 95900 nM and 40300 nM. The GI50 (HOP-62 NSCLC) was 34.6 nM and 57.3 nM and 51 nM, the TGI (HOP-62 NSCLC) was 58700 nM and 25200 nM and the GI50 (A498 renal) was < 16.4 nM and 12.6 nM. For the same compound, the GI50 (HL-60(TB) leukemia) was 22.6 nM and 29.9 nM and 26.1 nM, the GI50 (RPMI-8226 leukemia) was < 18.2 nM and 38.6 nM and 41.6 nM and the TGI (RPMI-8226 leukemia) was 13800 nM and 20000 nM. The GI50 (SK-MEL-2 melanoma) was 277 nM and 66.6 nM and 30.6 nM, the TGI (SK-MEL-2 melanoma) was 29100 nM and 10800 nM and the GI50 (SK-MEL-28 melanoma) was 10900 nM and 6920 nM. For the same compound, the TGI (SK-MEL-28 melanoma) was 74900 nM and 37000 nM, the GI50 (HCT-15 colon) was 31.8 nM and 34.6 nM and 34 nM and the TGI (HCT-15 colon) was > 100000 nM. The GI50 (BT-549 breast) was 34.5 nM and 45.8 nM and 33.5 nM, the TGI (BT-549 breast) was 2490 nM and 2330 nM and 498 nM and the GI50 (SW-620 colon) was 28.3 nM and 37.2 nM and 39.5 nM. The TGI (SW-620 colon) was > 100000 nM, the GI50 (UACC-257 melanoma) was 20100 nM and 12700 nM and the TGI (UACC-257 melanoma) was 73400 nM and 56800 nM. The GI50 (KM12 colon) was 28.2 nM and 35.8 nM and 30.2 nM, the TGI (KM12 colon) was > 100000 nM and the GI50 (TK-10 renal) was 16600 nM and 10300 nM. The TGI (TK-10 renal) was 71600 nM and 63800 nM, the GI50 (MDA-MB-435) was < 10 nM and 10 nM and the TGI (MDA-MB-435) was 21.5 nM and 33.6 nM. The GI50 (LOX IMVI melanoma) was 50.6 nM and 65.8 nM and 35.2 nM, the TGI (LOX IMVI melanoma) was 17600 nM and 13600 nM and the GI50 (HCT-116 colon) was 38.1 nM and 33.2 nM and 33.4 nM. The TGI (HCT-116 colon) was 1540 nM and 214 nM, the GI50 (MDA-MB-231 breast) was 52.4 nM and 97.6 nM and 36.1 nM and the GI50 (MCF7 breast) was 23.9 nM and 26.5 nM and 14.2 nM. The TGI (MCF7 breast) was 24700 nM and 22800 nM, the GI50 (SN12C renal) was 67 nM and 61.5 nM and 57.6 nM and the TGI (SN12C renal) was 51100 nM and 24500 nM. The GI50 (786-0 renal) was 48.7 nM and 46 nM and 36.2 nM, the TGI (786-0 renal) was 31000 nM and 22100 nM and the GI50 (K-562 leukemia) was 18.4 nM and 37.5 nM and 30.4 nM. For the same compound, the TGI (K-562 leukemia) was > 100000 nM, the GI50 (A549 NSCLC) was 36.7 nM and 44.9 nM and 35.7 nM and the TGI (A549 NSCLC) was > 100000 nM. For the same compound, the GI50 (SK-OV-3 ovarian) was 40.6 nM and 83.8 nM and 33 nM, the TGI (SK-OV-3 ovarian) was > 47800 nM and 17100 nM and the GI50 (ACHN renal) was 12.9 nM and 60.8 nM and 40.8 nM. For the same compound, the TGI (ACHN renal) was 25600 nM and > 100000 nM, the GI50 (HT29 colon) was 34.3 nM and 37.2 nM and 30.6 nM and the GI50 (NCI-H23 lung) was 57.8 nM and 62 nM and 52 nM. The TGI (NCI-H23 lung) was 52200 nM and 34500 nM.
